Source: patent publication US20220079993A1, “NON-NATURALLY OCCURRING THERMOGENIC ADIPOCYTES, METHODS OF MAKING, AND METHODS OF USE THEREOF” (University of Georgia Research Foundation, Inc., priority 2019, published 2022)
Like-named read-outs stand apart in the source and are kept apart here.

Columns and labels:
Type in all cases: cell-based, human
DIO2 = assay: qRT-PCR of DIO2 transcript in beige adipocytes -/+ forskolin; details: beige adipocytes stimulated with FSK (20 uM)
Experimental: (§1) FIG. 2A is a bar graph showing RNA expression levels by qRT-PCR for indicated genes (UCP1, DIO2) for adipose derived stem cells (ADSCs), GlucoCytes (GC), or GC with forskolin (FSK, 20 uM). FIG. 2B is a bar graph showing quantitation of immunostaining data (UCP1) from 6 independent fields of view. FIGS. 2C and 2D are bar graphs showing qRT-PCR of UCP1 of GC induced from an additional line purchased from ThermoFisher (2C) and an immortalized ADSC line purchased from ATCC (ASC52-telo) (2D). Transcript levels were determined by qRT-PCR. n=3 for each independent replicate. Data are mean+/−standard deviation. *P<0.0.05, **P<0.01, ***P<0.005. […] Cell lysates were collected at indicated days and RNA was isolated and analyzed by qRT-PCR for marker expression. […] Each line was differentiated for 21 days to beige adipocytes using B-8 medium and transcript levels of UCP1 (2Q), PPARGC1 (2R), IRF4 (2S), and ADIPOQ (2T) were measured by Taqman qRT-PCR for indicated genes +/−FSK for 6 hours (20 μM).
(§2) Cells were washed with DPBS, lysed directly on the plate and used for RNA isolation with the E.Z.N.A Total RNA Kit (Omega, R6834-02) according to manufacturer instructions. RNA quantitation was performed with the Biotek Synergy 2 plate reader and cDNA was synthesized using 1 ug of RNA with the iScript cDNA Synthesis Kit (Bio-Rad, 1708841). […]

beige adipocytes [1] = assay: Lipolysis validation assays of primary hits at three concentrations; details: Homo sapiens, Adipocyte, 24 h; for activity at 2.2 µM: Conc. 2.2 µM; for activity at 6.7 µM: Conc. 6.7 µM; for activity at 20 µM: Conc. 20 µM; for activity at 2200 µM: Conc. 2.2 mM
Experimental: (§3) ADSCs were seeded at 5000 cell/cm^2 in 12-well plates, grown for 5 days and then induced to differentiate into GC for 20 days. Prior to the assay, cells were washed in DPBS twice and then incubated with DMEM with 2% fatty-acid free BSA (Santa Crus, sc-500949) and Triascin C (5 μM). Cells were treated with forskolin (20 μM) for indicated time periods and supernatant samples were collected. Lipolysis assay was performed with free glycerol reagent (Sigma, F6428-40ML), according to manufacturer instructions.
(§4) Lipolysis assays were performed after 24 hours of drug treatment by measuring free glycerol released in the 384-well format, using the procedure described above. Absorbance for each compound was normalized to untreated control samples for each plate and calculated as a percent of the control. Cut-offs for “activating” and “inhibiting” compounds were set at 2-fold. Validation assays were performed for select compounds at a range of concentration doses.
Next, lipolysis assays were performed for all 111 compounds identified in the primary screen at three different concentrations, of which twenty-four were selected for further analysis based on their newness and/or reproducibility.

beige adipocytes [2] = assay: High-throughput primary screen, lipolysis assay (glycerol release), 384-well; details: 20 μM, 24 hours of drug treatment, vs untreated beige adipocytes
Experimental: as §3, with “Prior to the assay, cells were washed in DPBS twice and then incubated with DMEM with 2% fatty-acid free BSA (Santa Crus, sc-500949) and Triascin C (5 μM).” left out
ADSCs were plated in 384-well plates at a density of 5000 cell/cm2 and grown to confluency over ˜4 days. Cells were then differentiated to beige adipocytes using B-8 medium for 21 days. All cell culture and incubations in the 384-well format were done at 37° C. and 5% CO2. […] The use of FDA-approved drugs may allow for re-purposing for therapeutic use.
as §4

UCP1 = assay: qRT-PCR of UCP1 transcript in beige adipocytes -/+ forskolin; details: beige adipocytes stimulated with FSK (20 uM)
Experimental: as §1, §2

GC = assay: Lipolysis assay (free glycerol) after forskolin
Experimental: as §3

## C=C[C@@]1(C)CC(=O)[C@]2(O)[C@@]3(C)[C@@H](O)CCC(C)(C)[C@@H]3[C@H](O)[C@H](OC(C)=O)[C@@]2(C)O1 [Forskolin]
DIO2
  DIO2 transcript level compared to ADSCs: 130 fold
Beige adipocytes [1]; read-out: % of Control (2)
  activity at 2.2 µM: 394%
  activity at 6.7 µM: 362%
  activity at 20 µM: 330%
Beige adipocytes [1]; read-out: % of Control (4)
  activity at 2.2 µM: 247%
  activity at 6.7 µM: 242%
  activity at 20 µM: 267%
Beige adipocytes [1]; read-out: % of Control (1)
  activity at 6.7 µM: 311%
  activity at 20 µM: 417%
  activity at 2200 µM: 417%
Beige adipocytes [1]; read-out: % of Control (3)
  activity at 6.7 µM: 241%
  activity at 20 µM: 253%
  activity at 2200 µM: 252%
Beige adipocytes [2]
  % Control (relative levels of glycerol release): 262.31 % control
UCP1
  UCP1 transcript level compared to ADSCs: 520 fold
GC; 4 hours of FSK (20 μM)
  Increase in free glycerol in the media: ~2 fold
GC; 8 hours of FSK (20 μM)
  Increase in free glycerol in the media: ~5 fold
